Test results published in patent US20110130384A1, “AMIDE COMPOUND” (TAKEDA PHARMACEUTICAL COMPANY LIMITED, priority 2008, published 2011).

Target: T1, human GPR52 (Homo sapiens, UniProt Q9Y2T5)
T1 construct: expressed in transfected cells; host or cells: CHO(dhfr-) cells
Assay: Increase of intracellular cAMP concentration in human GPR52-expressing CHO cell (AlphaScreen cAMP assay)
Assay type: cell-based
Details: 1 μM test compound, human GPR52-expressing CHO(dhfr-) cells, 37° C. for 30 min; intracellular cAMP with 1 μM Reference Example 124 = 100%, DMSO = 0%
Procedure: Increase of Intracellular cAMP Concentration in Human GPR52-Expressing CHO Cell
Using OptiPlate-384 (PerkinElmer Inc.), 1×10^4 human GPR52-expressing CHO(dhfr-) cells were incubated together with 1 μM of a test compound in an assay buffer (30 μL, HBSS (containing Ca^2+ and Mg^2+), 0.5% BSA, 100 μm IBMX, 100 μm Ro20-1724, 5 mM HEPES (pH 7.55)) at 37° C. for 30 min. Thereafter, according to the protocol of AlphaScreen cAMP Assay Kit (PerkinElmer Inc.), the intracellular cAMP concentration was measured by EnVision (PerkinElmer Inc.). The GPR52 agonist activity was calculated, assuming the intracellular cAMP concentration in the presence of 1 μM 3-(6-(2-(3,4-dimethoxyphenyl)ethoxy)pyridin-2-yl)-N-(2-pyrrolidin-1-ylethyl)benzamide (Reference Example 124) to be 100% and assuming the intracellular cAMP concentration when DMSO was added instead of the test compound to be 0%.

T1 sequence (Q9Y2T5 whole entry): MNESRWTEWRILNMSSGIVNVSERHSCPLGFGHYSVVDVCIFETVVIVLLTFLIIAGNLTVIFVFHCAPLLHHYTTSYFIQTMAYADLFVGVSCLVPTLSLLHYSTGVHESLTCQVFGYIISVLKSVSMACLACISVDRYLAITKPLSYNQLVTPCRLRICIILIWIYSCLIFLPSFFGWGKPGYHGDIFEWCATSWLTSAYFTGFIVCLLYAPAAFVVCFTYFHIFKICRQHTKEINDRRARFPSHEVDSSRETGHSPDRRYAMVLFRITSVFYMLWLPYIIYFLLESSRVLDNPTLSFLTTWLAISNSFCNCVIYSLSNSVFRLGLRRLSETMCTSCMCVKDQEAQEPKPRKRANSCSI

Row | Compound | GPR52 agonist activity (%)
1 | COc1ccc(CCn2cnc3ccc(-c4cccc(C(=O)NCCN5CCCC5)c4)nc32)cc1OC [Example 45, 3-[3-[2-(3,4-dimethoxyphenyl)ethyl]-3H-imidazo[4,5-b]pyridin-5-yl]-N-(2-pyrrolidin-1-ylethyl)benzamide] | 79
2 | N#CCCNC(=O)c1cccc(-c2ncc3ccn(Cc4ccc(Cl)cc4Cl)c3n2)c1 [Example 40, N-(2-cyanoethyl)-3-[7-(2,4-dichlorobenzyl)-7H-pyrrolo[2,3-d]pyrimidin-2-yl]benzamide] | 52
3 | NC(=O)CNC(=O)c1cccc(-c2ccc3c(c2)C(Oc2ccc(Cl)cc2Cl)CC3)c1 (stereo not drawn) [Example 83, N-(2-amino-2-oxoethyl)-3-[3-(2,4-dichlorophenoxy)-2,3-dihydro-1H-inden-5-yl]benzamide] | 70
4 | O=C(Nc1cccnc1)c1cccc(-c2ccc3c(c2)C(Oc2ccc(Cl)cc2Cl)CC3)c1 (stereo not drawn) [Example 80, 3-[3-(2,4-dichlorophenoxy)-2,3-dihydro-1H-inden-5-yl]-N-pyridin-3-ylbenzamide] | 70
5 | O=C(NCCO)c1cccc(-c2ccc3ccn(Cc4ccc(Cl)cc4Cl)c3n2)c1 [Example 28, 3-[1-(2,4-dichlorobenzyl)-1H-pyrrolo[2,3-b]pyridin-6-yl]-N-(2-hydroxyethyl)benzamide] | 64
6 | N#CCCNC(=O)c1cccc(-c2ccc3c(c2)N(c2cccc(Cl)c2Cl)CC3)c1 [Example 10, N-(2-cyanoethyl)-3-[1-(2,3-dichlorophenyl)-2,3-dihydro-1H-indol-6-yl]benzamide] | 65
7 | O=C(NCCO)c1cccc(-c2ccc3c(c2)N(c2cc(Cl)cc(Cl)c2)CC3)c1 [Example 9, 3-[1-(3,5-dichlorophenyl)-2,3-dihydro-1H-indol-6-yl]-N-(2-hydroxyethyl)benzamide] | 59
8 | N#CCCNC(=O)c1cccc(-c2ccc3c(n2)N(c2ccc(Cl)cc2Cl)CC3)c1 [Example 34, N-(2-cyanoethyl)-3-[1-(2,4-dichlorophenyl)-2,3-dihydro-1H-pyrrolo[2,3-b]pyridin-6-yl]benzamide] | 74
9 | COc1ccc(CCn2ccc3ccc(-c4cccc(C(=O)NCCN(C)C)c4)nc32)cc1OC [Example 25, 3-[1-[2-(3,4-dimethoxyphenyl)ethyl]-1H-pyrrolo[2,3-b]pyridin-6-yl]-N-[2-(dimethylamino)ethyl]benzamide] | 80
10 | O=C(NCCO)c1cccc(-c2ccc3c(n2)N(c2ccc(Cl)cc2Cl)CC3)c1 [Example 35, 3-[1-(2,4-dichlorophenyl)-2,3-dihydro-1H-pyrrolo[2,3-b]pyridin-6-yl]-N-(2-hydroxyethyl)benzamide] | 81
11 | O=C(NCCO)c1cccc(-c2ccc3c(c2)C(c2ccc(Cl)cc2Cl)CC3)c1 (stereo not drawn) [Example 64, 3-[3-(2,4-dichlorophenyl)-2,3-dihydro-1H-inden-5-yl]-N-(2-hydroxyethyl)benzamide] | 84
12 | N#CCCNC(=O)c1cccc(-c2ccc3c(c2)C(c2ccc(Cl)cc2Cl)CC3)c1 (single isomer, unassigned; (+)) [Example 63, (+)-N-(2-cyanoethyl)-3-[3-(2,4-dichlorophenyl)-2,3-dihydro-1H-inden-5-yl]benzamide] | 66
13 | O=C(NCCO)c1cccc(-c2ccc3c(c2)N(c2cccc(Cl)c2Cl)CC3)c1 [Example 11, 3-[1-(2,3-dichlorophenyl)-2,3-dihydro-1H-indol-6-yl]-N-(2-hydroxyethyl)benzamide] | 74
14 | O=C(NCCO)c1cccc(-c2ccc3c(c2)C(Nc2ccc(Cl)cc2Cl)CO3)c1 (stereo not drawn) [Example 87, 3-[3-[(2,4-dichlorophenyl)amino]-2,3-dihydro-1-benzofuran-5-yl]-N-(2-hydroxyethyl)benzamide] | 59
15 | N#CCCNC(=O)c1cccc(-c2ccc3c(c2)N(c2ccc(Cl)c(Cl)c2)CC3)c1 [Example 6, N-(2-cyanoethyl)-3-[1-(3,4-dichlorophenyl)-2,3-dihydro-1H-indol-6-yl]benzamide] | 59
16 | O=C(NCCO)c1cccc(-c2ccc3c(c2)N(c2cc(Cl)ccc2Cl)CC3)c1 [Example 5, 3-[1-(2,5-dichlorophenyl)-2,3-dihydro-1H-indol-6-yl]-N-(2-hydroxyethyl)benzamide] | 75
17 | CS(=O)(=O)CCNC(=O)c1cccc(-c2ccc3c(c2)C(c2ccc(Cl)cc2Cl)CC3)c1 (stereo not drawn) [Example 67, 3-[3-(2,4-dichlorophenyl)-2,3-dihydro-1H-inden-5-yl]-N-[2-(methylsulfonyl)ethyl]benzamide] | 73
18 | O=C(NCCO)c1cccc(-c2ccc3c(c2)C(c2ccc(Cl)cc2Cl)CCO3)c1 (stereo not drawn) [Example 90, 3-[4-(2,4-dichlorophenyl)-3,4-dihydro-2H-chromen-6-yl]-N-(2-hydroxyethyl)benzamide] | 65
19 | N#CCCNC(=O)c1cccc(-c2ccc3c(c2)N(c2ccc(Cl)cc2Cl)CCO3)c1 [Example 47, N-(2-cyanoethyl)-3-[4-(2,4-dichlorophenyl)-3,4-dihydro-2H-1,4-benzoxazin-6-yl]benzamide] | 63
20 | N#CCCNC(=O)c1cccc(-c2ccc3c(c2)N(Cc2cc(Cl)cc(Cl)c2)CC3)c1 [Example 15, N-(2-cyanoethyl)-3-[1-(3,5-dichlorobenzyl)-2,3-dihydro-1H-indol-6-yl]benzamide] | 77
21 | N#CCCNC(=O)c1cccc(-c2ccc3c(c2)N(c2ccc(Cl)cc2Cl)CC3)c1 [Example 2, N-(2-cyanoethyl)-3-[1-(2,4-dichlorophenyl)-2,3-dihydro-1H-indol-6-yl]benzamide] | 69
22 | N#CCCNC(=O)c1cccc(-c2ccc3c(n2)N(Cc2ccc(Cl)cc2Cl)CC3)c1 [Example 30, N-(2-cyanoethyl)-3-[1-(2,4-dichlorobenzyl)-2,3-dihydro-1H-pyrrolo[2,3-b]pyridin-6-yl]benzamide] | 72
23 | O=C(NCCO)c1cccc(-c2ccc3c(c2)N(c2ccc(Cl)cc2Cl)CC3)c1 [Example 3, 3-[1-(2,4-dichlorophenyl)-2,3-dihydro-1H-indol-6-yl]-N-(2-hydroxyethyl)benzamide] | 71
24 | O=C(NCCO)c1cccc(-c2ccc3c(c2)C(Oc2ccc(Cl)cc2Cl)CC3)c1 (stereo not drawn) [Example 74, 3-[3-(2,4-dichlorophenoxy)-2,3-dihydro-1H-inden-5-yl]-N-(2-hydroxyethyl)benzamide] | 76
25 | N#CCCNC(=O)c1cccc(-c2ccc3c(c2)N(c2cc(Cl)ccc2Cl)CC3)c1 [Example 4, N-(2-cyanoethyl)-3-[1-(2,5-dichlorophenyl)-2,3-dihydro-1H-indol-6-yl]benzamide] | 75
26 | COc1ccc(CCn2ccc3ccc(-c4cccc(C(=O)NCCC#N)c4)nc32)cc1OC [Example 26, N-(2-cyanoethyl)-3-[1-[2-(3,4-dimethoxyphenyl)ethyl]-1H-pyrrolo[2,3-b]pyridin-6-yl]benzamide] | 62
27 | C[S+]([O-])CCNC(=O)c1cccc(-c2ccc3c(c2)C(Oc2ccc(Cl)cc2Cl)CC3)c1 (stereo not drawn) [Example 76, 3-[3-(2,4-dichlorophenoxy)-2,3-dihydro-1H-inden-5-yl]-N-[2-(methylsulfinyl)ethyl]benzamide] | 80
